The values below come from ChEMBL document CHEMBL1155440, “1-(5-carboxyindol-1-yl)propan-2-one inhibitors of human cytosolic phospholipase A(2)alpha with reduced lipophilicity: synthesis, biological activity, metabolic stability, solubility, bioavailability, and topical in vivo activity” (J Med Chem, 2010).

Values after ≈ are worked out from the molar mass of the structure shown. Active and inactive are the calls of the source. The rule behind the calls is not given here.

The nature of data set [1]: Thermodynamic solubility in sodium phosphate buffer of pH 7.4 by UV-reverse phase HPLC analysis. The format is physicochemical.
Data set [2] in a line: Partition coefficient, log P at 5 mM by reverse phase HPLC analysis. The format is physicochemical. As to conditions: octanol/water.
The nature of data set [3]: Metabolic stability in rat liver microsomes assessed as compound remaining after 30 mins by HPLC/MS analysis. As to conditions: read-out: Stability. The format is ADME, Microsome.
The nature of data set [4]: Inhibition of human platelet cPLA2alpha assessed as inhibition of arachidonic acid production after 60 mins by UV-reverse phase HPLC analysis. Particulars: 1 h.
For data set [5], the species on record is Homo sapiens. Description: Inhibition of human platelet cPLA2alpha assessed as inhibition of arachidonic acid production at 1 uM after 60 mins by UV-reverse phase HPLC analysis.
Data set [6] has as its target Phospholipase A2, major isoenzyme (Sus scrofa) (UniProt P00592). Description: Inhibition of pig pancreas group 1B sPLA2 assessed as inhibition of POPG cleavage at 10 uM after 30 mins by HPLC analysis.
The target in data set [7] is T1, 85/88 kDa calcium-independent phospholipase A2 (Rattus norvegicus) (UniProt P97570).
T1 sequence (whole entry): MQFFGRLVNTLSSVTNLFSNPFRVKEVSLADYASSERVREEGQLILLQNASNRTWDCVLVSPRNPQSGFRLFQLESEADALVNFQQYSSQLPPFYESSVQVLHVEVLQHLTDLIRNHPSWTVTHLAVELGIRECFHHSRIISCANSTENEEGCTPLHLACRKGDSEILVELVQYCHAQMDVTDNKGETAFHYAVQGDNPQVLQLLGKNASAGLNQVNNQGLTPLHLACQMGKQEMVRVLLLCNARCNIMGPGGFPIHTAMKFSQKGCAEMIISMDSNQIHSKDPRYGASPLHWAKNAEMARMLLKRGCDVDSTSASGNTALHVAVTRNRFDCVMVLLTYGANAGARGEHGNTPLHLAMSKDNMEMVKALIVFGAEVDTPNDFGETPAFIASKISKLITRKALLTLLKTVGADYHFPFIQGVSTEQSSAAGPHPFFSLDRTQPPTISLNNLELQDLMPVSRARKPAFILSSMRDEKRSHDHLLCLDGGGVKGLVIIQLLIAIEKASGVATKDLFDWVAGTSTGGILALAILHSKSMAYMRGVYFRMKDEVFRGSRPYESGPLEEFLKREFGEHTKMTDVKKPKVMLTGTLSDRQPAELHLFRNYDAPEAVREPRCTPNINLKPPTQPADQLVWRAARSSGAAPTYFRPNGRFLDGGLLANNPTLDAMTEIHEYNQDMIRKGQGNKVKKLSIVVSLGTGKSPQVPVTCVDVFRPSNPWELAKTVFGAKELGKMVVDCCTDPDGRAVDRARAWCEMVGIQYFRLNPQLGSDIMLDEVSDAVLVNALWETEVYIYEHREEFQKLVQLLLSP
Description: Inhibition of Sprague-Dawley rat brain iPLA2 assessed as inhibition of substrate cleavage at 10 uM after 60 mins by HPLC analysis.

The species named for data set [8] is Homo sapiens. Description: Inhibition of human platelet cPLA2alpha assessed as inhibition of arachidonic acid production at 33 nM after 60 mins by UV-reverse phase HPLC analysis.
Data set [9] is described as follows: Inhibition of cPLA2alpha.

Phospholipase A2, major isoenzyme (Sus scrofa), sequence (P00592 23-146 limits assumed): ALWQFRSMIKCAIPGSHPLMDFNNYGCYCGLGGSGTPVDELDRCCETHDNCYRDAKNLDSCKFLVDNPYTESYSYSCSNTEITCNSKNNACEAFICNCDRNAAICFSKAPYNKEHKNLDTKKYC

As a reminder, the thermodynamic solubility is solubility found after equilibrating the solid with the medium. In general, logP refers to a log measure of how a compound divides between an organic and an aqueous phase. Low readings indicate lower lipophilicity, high ones higher lipophilicity. Usually IC50 stands for the point on the concentration scale where inhibition reaches its midpoint. As to `O=C(COc1ccc(-c2ccc(F)cc2)cc1)Cn1ccc2cc(C(=O)O)ccc21`, the thermodynamic solubility in data set [1] was < 3 µg/mL. This compound had a logP at 5000 µM in data set [2] of 3.2. In data set [3], the remaining at 0.5 h is 14%. Moreover, the IC50 in data set [4] is 37 nM.
On to `CC(=O)c1cn(CC(=O)COc2ccc(Oc3ccc(C(F)(F)F)cc3)cc2)c2ccc(C(=O)O)cc12`, for which the thermodynamic solubility in data set [1] was < 3 µg/mL. In [2], this compound registered a logP at 5000 µM of 3.5. The remaining at 0.5 h in data set [3] turned out to be 73%. The IC50 in [4] is 10 nM.
As a reminder, the inhibition is the drop in the measured response relative to a control, in per cent. `COc1cc(-c2ccccc2)ccc1OCC(=O)Cn1ccc2cc(C(=O)O)ccc21` came in with a solubility (thermodynamic) in data set [1] of 6 µg/mL (≈ 14.4 µM). In addition, in [5], the inhibition entry was “inactive”. Moreover, in [2], the logP at 5000 µM is 2.9. Besides, in data set [3], the remaining at 0.5 h stood at 72%.
Turning to `COc1ccc(-c2ccc(OCC(=O)Cn3ccc4cc(C(=O)O)ccc43)cc2)cc1`, the solubility (thermodynamic) in data set [1] is < 3 µg/mL. This compound also had a logP at 5000 µM in [2] of 3. Further, in data set [3], the remaining at 0.5 h is 2%. In data set [4], the IC50 worked out at 90 nM.
Turning to `O=C(COc1ccc(OCCOc2ccccc2)cc1)Cn1ccc2cc(C(=O)O)ccc21`, the thermodynamic solubility in data set [1] turned out to be 31 µg/mL (≈ 69.6 µM). The compound also displayed a logP at 5000 µM in [2] of 3.1. Moreover, the remaining at 0.5 h in data set [3] came out at 21%. The IC50 in [4] was 110 nM.
The matching figures for `CCCCCCCCCCOc1ccc(OCC(=O)Cn2ccc3cc(C(=O)O)ccc32)cc1`: < 3 µg/mL, 7.1, 67% and 20 nM.
In the case of `Cc1cc(-c2ccccc2)ccc1OCC(=O)Cn1ccc2cc(C(=O)O)ccc21`, the solubility (thermodynamic) in data set [1] is < 3 µg/mL. Besides, in [5], the inhibition turned out to be 16%. In addition, the remaining at 0.5 h in data set [3] stood at 33%. The IC50 in [4] is > 1000 nM.
`CCCCCCOc1ccc(OCC(=O)Cn2ccc3cc(C(=O)O)ccc32)cc1` gave a solubility (thermodynamic) in data set [1] of 7 µg/mL (≈ 17.1 µM). In data set [2], the logP at 5000 µM was 4.6. Moreover, in data set [3], the remaining at 0.5 h stood at 38%. In data set [4], the IC50 was found to be 34 nM.
As to `O=C(COc1ccc(-c2ccccc2)cc1Cl)Cn1ccc2cc(C(=O)O)ccc21`, the thermodynamic solubility in data set [1] was < 3 µg/mL. For the same compound, the inhibition in data set [5] came to 29%. For the same compound, the logP at 5000 µM in [2] was 3.7. The remaining at 0.5 h in data set [3] was 61%. Also, in data set [4], the IC50 is > 1000 nM.
In turn, `COc1ccc2c(c1)c(CC(=O)O)c(C)n2C(=O)c1ccc(Cl)cc1` [INDOMETHACIN] had a solubility (thermodynamic) in [1] of 246 µg/mL (≈ 688 µM). In [2], the logP at 5000 µM was 2.9.
In the case of `CC(=O)c1cn(CC(=O)COc2ccc(Oc3ccccc3)cc2)c2ccc(C(=O)O)cc12`, in [1], the thermodynamic solubility worked out at 111 µg/mL (≈ 250 µM). In [2], this compound displayed a logP at 5000 µM of 2.6. The remaining at 0.5 h in data set [3] was found to be 41%. Moreover, the IC50 in data set [4] was 12 nM.
The matching figures for `CCCCCCCOc1ccc(OCC(=O)Cn2ccc3cc(C(=O)O)ccc32)cc1`: < 3 µg/mL, 5.2, 57% and 32 nM.
On to `O=C(O)CC[C@@H](Cc1ccc(OCc2ccccc2)cc1)NC(=O)CCCCCCc1ccccc1`, for which the inhibition in data set [6] is 89%.
`CC(=O)c1cn(CC(=O)COc2ccc(OCCOc3ccccc3)cc2)c2ccc(C(=O)O)cc12` yielded a thermodynamic solubility in [1] of 34 µg/mL (≈ 69.7 µM). In addition, in [2], the logP at 5000 µM worked out at 2.6. Moreover, in [3], the remaining at 0.5 h turned out to be 68%. Further, the IC50 in data set [4] is 41 nM.
As to `O=C1O/C(=C/Br)CCC1c1cccc2ccccc12` (stereo not drawn), the inhibition in [7] amounted to 50%.
On to `NC(=O)c1ccc2c(ccn2CC(=O)COc2ccccc2-c2ccccc2)c1`, for which the solubility (thermodynamic) in data set [1] is < 3 µg/mL. Further, the inhibition result in data set [5] was “inactive”. Besides, the logP at 5000 µM in data set [2] worked out at 2.3. For the same compound, the remaining at 0.5 h in [3] was determined as 20%.
Take `CC(C)c1ccc(-c2ccc(OCC(=O)Cn3ccc4cc(C(=O)O)ccc43)cc2)cc1`: the solubility (thermodynamic) in data set [1] was < 3 µg/mL. This compound also had a logP at 5000 µM in data set [2] of 4.7. Moreover, the remaining at 0.5 h in [3] is 40%. In [4], the IC50 is 35 nM.
For `O=C(COc1ccc(-c2ccccc2)cc1)Cn1ccc2cc(C(=O)O)ccc21` the same measures were 5 µg/mL (≈ 13 µM), 3.2, 7% and 64 nM.
For `O=C(COc1ccc(Cc2ccccc2)cc1)Cn1ccc2cc(C(=O)O)ccc21` the same measures were 18 µg/mL (≈ 45.1 µM), 3.3, 7% and 54 nM.
For `Cc1ccc(-c2ccc(OCC(=O)Cn3ccc4cc(C(=O)O)ccc43)cc2)cc1` the same measures were < 3 µg/mL, 3.7, 22% and 40 nM.
As to `CC(C)(c1ccccc1)c1ccc(OCC(=O)Cn2ccc3cc(C(=O)O)ccc32)cc1`, the solubility (thermodynamic) in data set [1] came out at 25 µg/mL (≈ 58.5 µM). This compound also gave a logP at 5000 µM in data set [2] of 4.1. For the same compound, the remaining at 0.5 h in [3] came out at 0%. The IC50 in data set [4] stood at 47 nM.
Regarding `O=C(COc1ccc(-c2cccc(F)c2)cc1)Cn1ccc2cc(C(=O)O)ccc21`, in [1], the thermodynamic solubility is < 3 µg/mL. In data set [2], the logP at 5000 µM stood at 3.2. In addition, in [3], the remaining at 0.5 h is 22%. Moreover, the IC50 in data set [4] amounted to 41 nM.
For `NC(=O)c1ccc2c(ccn2CC(=O)COc2ccc(-c3ccccc3)cc2)c1` the same measures were < 3 µg/mL, 2.4, 33% and 150 nM.
The matching figures for `O=C(COc1ccc(-c2ccc(Cl)cc2)cc1)Cn1ccc2cc(C(=O)O)ccc21`: < 3 µg/mL, 3.9, 46% and 27 nM.
On to `CCCCCCCCc1ccc(OCC(=O)Cn2ccc3cc(C(=O)O)ccc32)cc1`, for which, in data set [8], the inhibition is 47%. Half-maximal inhibition in data set [9] (IC50) was put at 120 nM. Moreover, the logP at 5000 µM in data set [2] is 6.3.
Turning to `CCCCCCCCc1ccc(OCC(=O)Cn2ccc3cc(C(N)=O)ccc32)cc1`, in [1], the solubility (thermodynamic) was < 3 µg/mL. The IC50 in data set [9] came out at 35 nM; in data set [4], 120 nM. Besides, in data set [2], the logP at 5000 µM amounted to 5.5. Also, the remaining at 0.5 h in data set [3] came out at 54%.
For `CCCCCCCCCOc1ccc(OCC(=O)Cn2ccc3cc(C(=O)O)ccc32)cc1`, the solubility (thermodynamic) in data set [1] was < 3 µg/mL. In data set [2], the logP at 5000 µM turned out to be 6.5. Also, in data set [3], the remaining at 0.5 h was 74%. For the same compound, in data set [4], the IC50 stood at 23 nM.
For `NC(=O)c1ccc2c(ccn2CC(=O)COc2cccc(-c3ccccc3)c2)c1`, the thermodynamic solubility in data set [1] is < 3 µg/mL. In data set [2], the logP at 5000 µM is 2.3. Besides, the remaining at 0.5 h in [3] was determined as 15%. Besides, in data set [4], the 50% inhibitory concentration (IC50) turned out to be 250 nM.
In the case of `O=C(COc1ccc(Oc2ccccc2)cc1)Cn1ccc2cc(C(=O)O)ccc21`, the solubility (thermodynamic) in data set [1] is 43 µg/mL (≈ 107 µM). The logP at 5000 µM in data set [2] worked out at 3.1. Moreover, the remaining at 0.5 h in [3] stood at 3%. Further, the IC50 in data set [4] was determined as 36 nM.
Consider `O=C(COc1ccccc1-c1ccccc1)Cn1ccc2cc(C(=O)O)ccc21`, for which the solubility (thermodynamic) in data set [1] worked out at 21 µg/mL (≈ 54.5 µM). Further, the inhibition entry in data set [5] was “inactive”. This compound registered a logP at 5000 µM in [2] of 3.1. Moreover, the remaining at 0.5 h in data set [3] is 81%.
Consider `CCCCCCCCOc1ccc(OCC(=O)Cn2ccc3cc(C(=O)O)ccc32)cc1`, for which, in [1], the thermodynamic solubility was < 3 µg/mL. Further, the logP at 5000 µM in [2] was 5.9. Moreover, the remaining at 0.5 h in [3] stood at 79%. In data set [4], the IC50 stood at 26 nM.
The matching figures for `O=C(COc1cccc(-c2ccccc2)c1)Cn1ccc2cc(C(=O)O)ccc21`: 16 µg/mL (≈ 41.5 µM), 3.1, 13% and 210 nM.
As for `O=C(COc1ccc(Oc2ccc(C(F)(F)F)cc2)cc1)Cn1ccc2cc(C(=O)O)ccc21`, in data set [1], the solubility (thermodynamic) is < 3 µg/mL. For the same compound, in [2], the logP at 5000 µM turned out to be 4. The remaining at 0.5 h in data set [3] is 57%. For the same compound, the IC50 in data set [4] worked out at 19 nM.
For `O=C(COc1ccc(-c2cccc(Cl)c2)cc1)Cn1ccc2cc(C(=O)O)ccc21` the same measures were < 3 µg/mL, 3.8, 31% and 19 nM.
For `O=C(COc1ccc(-c2ccccc2)cc1F)Cn1ccc2cc(C(=O)O)ccc21` the same measures were 5 µg/mL (≈ 12.4 µM), 3.3, 16% and 230 nM.
